Results published in patent US20070190651A1, “Myogenic Development and Protection of Stem Cells Against Inflammation and Apoptosis By Statins and Isoprenoid Pathway Inhibitors” (Board of Regents of the University of Texas System, priority 2006, published 2007).
Entries after “also recorded” stand apart in the source; their conditions may differ.

Experiments:
H9c2 embryonic myoblasts [1] = experiment: Immunoblotting for Bad, Bcl-xL and PCNA in H9c2 embryonic myoblasts with IL-1; format: cell-based, rat; conditions: L-mevalonate added to simvastatin + IL-1
Protocol: Quantitation of protein bands was achieved by densitometry (Panels D, E and F, bottom). β-Tubulin staining of stripped blots was used as a control. […] PCNA, proliferating cell nuclear antigen; IL-1, interleukin-1-α; iNOS, inducible nitric oxide synthase; MnSOD, manganese superoxide dismutase.
(§1) The rat embryonic myogenic cell line H9c2 was commercially obtained from ATCC and maintained in Dulbecco's modified Eagle's medium (GIBCO) supplemented with 10% FBS at 37° C. in 95% air and 5% CO2.
(§2) Immunoblotting. Total proteins were isolated from rat cardiac myoblasts (H9c2 cells) or embryonic stem cells in an ice-cold lysis buffer containing 10 mmol/L Tris (tris(hydroxymethyl)aminomethane) (pH 7.4), 1% sodium dodecyl sulfate (SDS) and 1× protease inhibitor (1 mmol/L sodium orthovanadate). Proteins (15 μg/lane) were separated under the reducing conditions (125 mM Tris pH 6.8, 4% SDS, 10% glycerol, 0.006% bromophenol blue, 2% β-mercaptoethanol) by electrophoresis onto 5-10% SDS-polyacrylamide gel and electro-blotted to nitrocellulose membranes (Osmonics, Westborough, Mass.). The membranes were reversibly stained with Ponceau red (Sigma) to verify equal protein loading and/or transfer. […] Intensity of each immunoreactive protein band was quantified by densitometric analysis. […]

iNOS [2] = experiment: Immunoblotting for iNOS protein in cytokine-stimulated H9c2 cardiac myoblasts; format: cell-based, rat
Protocol: Cell cultures. H9c2 cells purchased from American Type Culture Collection (ATCC, Rockville, Md.) are spontaneously immortalized ventricular myoblasts from the rat embryo, with preservation of several electrical and biochemical characteristics found in adult cardiomyocytes. They were cultured in DMEM medium (ATCC) supplemented with 10% heat-inactivated fetal bovine serum (FBS) in 95% air and 5% CO2 at 37° C. […] After certain time intervals, 100 μL/well culture media were collected for determination of nitrite production.
Immunoblotting. Total proteins were isolated from rat cardiac myoblasts (H9c2 cells) or embryonic stem cells in an ice-cold lysis buffer containing 10 mmol/L Tris (tris(hydroxymethyl)aminomethane) (pH 7.4), 1% sodium dodecyl sulfate (SDS) and 1× protease inhibitor (1 mmol/L sodium orthovanadate). Proteins (15 μg/lane) were separated under the reducing conditions (125 mM Tris pH 6.8, 4% SDS, 10% glycerol, 0.006% bromophenol blue, 2% β-mercaptoethanol) by electrophoresis onto 5-10% SDS-polyacrylamide gel and electro-blotted to nitrocellulose membranes (Osmonics, Westborough, Mass.). The membranes were reversibly stained with Ponceau red (Sigma) to verify equal protein loading and/or transfer. After blocking in Tris-buffered saline (0.2 M Tris and 8% NaCl) containing 5% non-fat powdered milk and 0.1% Tween 20 for 1 hour at room temperature, the membranes were incubated overnight at 4° C. with following primary antibodies to (a) iNOS (Transduction Laboratories, Lexington, Ky.; BD Biosciences); (b) NF-κB p65/rel (Santa Cruz Biotechnologies, Santa Cruz, Calif.); (c) ser^32-phosphorylated inhibitor IκBα (Santa Cruz); (d) Bad (BD Biosciences, San Jose, Calif.); (e) Bcl-xL (BD Biosciences); (f) proliferating cell nuclear antigen (PCNA; BC Biosciences); (g) ryanodine receptor (Santa Cruze Biotechnology, Inc., Santa Cruz, Calif.); (h) α-sarcomeric actinin (Sigma); (i) myocardin A (developed by immunizing rabbits with a synthetic myocardin A peptide); (j) Tie-2 (Santa Cruz); (k) manganese superoxide dismutase (Santa Cruz); and (1) β-tubulin (Sigma). The blots were incubated with horseradish peroxidase-coupled secondary antibodies, washed and developed by using a SuperSignal West Pico Chemiluminescent Substrate Kit (Pierce, Rockford, Ill.). Intensity of each immunoreactive protein band was quantified by densitometric analysis. Cytokine-stimulated RAW 264.7 cells (Transduction Laboratories, Lexington, Ky.) were used as positive controls.

H9c2 embryonic myoblasts [3] = experiment: Apoptosis assay (acridine orange and ethidium bromide) in H9c2 embryonic myoblasts; format: cell-based, rat; conditions: mevalonate 10^−4 mol/l with IL-1 + simvastatin
Protocol: The cells were exposed with IL-1αSimvastatin for 24 hours and then stained with two fluorochromes: acridine orange and ethidium bromide. Living (green fluorescence) and apoptotic (red fluorescence) cells were identified and counted with an Olympus fluorescence microscope connected to a computer imaging station.
as §1
Assays for Apoptosis. Analysis of apoptotic cells was performed by fluorescent microscopy with fluorochromes acridine orange and ethidium bromide (Sigma), as described previously (19). Apoptotic cells were discernible by their condensed, fragmented nuclei stained with both fluorochromes and were counted under a fluorescence microscope (Olympus, Center Valley, Pa.) connected to a computer imaging analysis station.

[4] = system: murine embryonic stem cells; format: cell-based
Protocol: At day 12, the number of contracting EB outgrowths (Panel A) and extension of beating area (Panel B) were detrmined by morphometry. The results were plotted as percentages of the total EBs counted in each well and shown as the mean ±SD for each of the 3 separate experiments. *, P<0.05 vs untreated control; #, P<0.05 vs simvastatin-treated control.
The murine ESC (mESC) line CCE was obtained from American Type Culture Collection (ATCC, Rockville, Md.). Murine ESCs were cultured without feeder cells in Dulbecco's modified Eagle's medium supplemented with 10% ESC-qualified Fetal Bovine Serum (FBS) (Stem Cell Technologies, Vancouver, Va.), pyruvate (Stem Cell Technologies, stock solution diluted 1:100), 2 mM L-glutamine, nonessential amino acids (Stem Cell Technologies, stock solution diluted 1:100), 100 IU/mL penicillin, 0.1 mg/mL streptomycin, and leukemia inhibitory factor (LIF) (Stem Cell Technologies). To induce differentiation, EBs were formed from undifferentiated mESCs in hanging drops of 400 cells in 20 μL of medium without LIF. After 5 days in suspension, EBs were plated on gelatin-coated dishes and cultured in cardiomyocyte-differentiation medium (Iscove's modified Eagle's medium, supplemented with 15% FBS, 2 mM L-glutamine, 5×10^−5 M β-mercaptoethanol, nonessential aminoacids, 100 IU/mL penicillin, 0.1 mg/mL streptomycin).
Statin Treatment. […] The inhibition of endogenous cholesterol synthesis was the mechanism used for analyzing the effect of endogenous cholesterol depletion on EB differentiation. By days 8 through 12 after plating, spontaneously contracting cell clusters could be observed within the EB outgrowths. Culture media from both simvastatin-treated and untreated cells were changed each day after day 3.
Spontaneous cardiac differentiation of mouse embryonic stem cells (mESCs) was assessed in vitro as the presence of rhythmically beating […] (EB) outgrowth. […] Thereafter, EB outgrowths were counted periodically under the inverted microscope equipped with a digital video camera, to determine whether or not they contained beating foci at different time points (days 3, 5, 7, 10, 12, and 14). At approximately day 7, contracting areas began to appear. […] Concomitant with the increased number of beating EBs, the size of the beating area for simvastatin-treated EBs increased 2-fold (evaluated at day 12) compared to that of untreated control EBs, a significant augmentation (p<0.05) (FIG. 22B).

iNOS [5] = experiment: Nitrite production (Griess reaction) in H9c2 cardiac myoblasts; format: cell-based, rat; conditions: added to simvastatin + IL-1α 20 ng/mL
Protocol: Cell cultures. H9c2 cells purchased from American Type Culture Collection (ATCC, Rockville, Md.) are spontaneously immortalized ventricular myoblasts from the rat embryo, with preservation of several electrical and biochemical characteristics found in adult cardiomyocytes. […] After certain time intervals, 100 μL/well culture media were collected for determination of nitrite production. Assay for NO Production. The activity of iNOS was determined in the culture medium by assaying nitrites, taken as an index of NO production, using the Griess reagent (1% sulphanilic acid and 0.1% N-[1-naphtyl] ethylenediamine-HCl in 5% phosphoric acid) as reported previously (4,18,19). Equal volumes of medium and Griess reagent were mixed, and the purple products quantified spectrophotometrically at 550 nm. Nitrite concentrations were determined from a linear standard curve constructed with known concentrations of sodium nitrite (0 to 40 μmol/L nitrite). Nitrite Assays. Nitrite, a stable end-product of nitric oxide, was measured by using Griess reagent (1% sulphanilic acid and 0.1% N-[1-naphtyl] ethylenediamine-HCl in 5% phosphoric acid). Equal volumes of medium and Griess reagent were mixed, and the resulting purple product quantified by spectrophotometric assay at 550 nm. Nitrite concentrations were calculated from a linear standard curve constructed with known concentrations of sodium nitrite (0-14 μmol/L nitrite) (19).

NF-κB p65/RelA = experiment: Immunoblotting for p65/RelA subunit of NF-κB, total cellular or nuclear proteins of H9c2 cells; format: cell-based, rat; conditions: simvastatin + IL-1α + L-mevalonate
iNOS [6] = conditions: cited from earlier work
iNOS [7] = conditions: lovastatin pretreatment; cited from earlier work
[8] = injected subcutaneously over the calvaria of mice; cited from earlier work
[9] = orally administered to rats; cited from earlier work
Rho kinase = conditions: cited from earlier work
NF-κB = conditions: cited from earlier work
IκBα = experiment: Immunoblotting for ser32 phosphorylated IκBα in H9c2 cells; format: cell-based, rat; conditions: 24 h
Protocol: Immunoreactive bands were quantified by densitometry (Panel B).
as §2

Compound: CC(O)(CCO)CC(=O)O [L-mevalonate]
- effect on the simvastatin effect on Bcl-xL (H9c2 embryonic myoblasts [1]): reversed the statin effect
- effect on simvastatin inhibition of cytokine-induced iNOS protein expression (iNOS [2]; H9c2, added to simvastatin + IL-1α or TNF-α): reversibly blocked; also recorded: blocks the simvastatin inhibitory effect; also recorded: diminished the inhibitory effect of simvastatin
- cytokine-induced iNOS protein expression in the absence of simvastatin (iNOS [2]; H9c2, cytokine-stimulated, no simvastatin): no or little effect on cytokine-induced iNOS expression
- effect on the simvastatin cytoprotective effect (H9c2 embryonic myoblasts [3]): diminished
- cytotoxicity in EBs [4]: without any cytotoxicity
- contracting EBs in the absence of simvastatin ([4]; L-mevalonate alone): no or little effect on contracting EBs
- effect on nitrite production in cells treated with simvastatin plus IL-1α (iNOS [5]): significantly increased the nitrite concentrations
- nuclear p65/rel protein levels in statin-treated, cytokine-stimulated cells (NF-κB p65/RelA): could elevate the nuclear p65/rel protein levels

Compound: CC[C@H](C)C(=O)O[C@H]1C[C@@H](C)C=C2C=C[C@H](C)[C@H](CC[C@@H]3C[C@@H](O)CC(=O)O3)[C@H]21 [lovastatin]
- iNOS and cytokine expression (iNOS [6]; rat macrophages, astrocytes, and microglia): inhibits iNOS and cytokine expression
- LPS-induced iNOS expression (iNOS [6]; rat primary astrocytes): blocks LPS-induced iNOS expression
- IL-1beta induction of iNOS (iNOS [7]): superinduction of iNOS
- bone formation [8]: increase bone formation
- cancellous bone volume [9]: increased cancellous bone volume
- Rho kinase activity (Rho kinase): inhibit the Rho kinase activity

Compound: CC[C@H](C)C(=O)O[C@H]1CCC=C2C=C[C@H](C)[C@H](CC[C@@H]3C[C@@H](O)CC(=O)O3)[C@H]21 [mevastatin]
- NF-κB activity and NF-κB-dependent VCAM and E-selectin expression (NF-κB): inactivate NF-κB and reduce NF-κB-dependent expression of the endothelial adhesion proteins

Compound: CCC(C)(C)C(=O)O[C@H]1C[C@@H](C)C=C2C=C[C@H](C)[C@H](CC[C@@H]3C[C@@H](O)CC(=O)O3)[C@H]21 [simvastatin]
- concentration giving the highest levels of phosphorylated IκBα (IκBα): 10^−7 mol/L
- lowest concentration achieving the inhibitory effect on iNOS expression (iNOS [2]; H9c2, cytokine-stimulated): 10^−8 mol/L
- size of the beating area, increase compared to untreated control EBs ([4]; day 12): 2 fold
- percentage of beating EB outgrowths ([4]; day 12, simvastatin, untreated control 18±0.1%): 42±0.1%
